Test results taken from patent publication US6867043B2, “Peptides that deliver antisense oligonucleotides which downregulate protein expression in cells” (The Trustees of Columbia University in the City of New York, priority 2001, dated 2005).
Oligonucleotides are written 5' to 3', each unit as a sugar letter and its base; * is a phosphorothioate linkage, no mark a phosphodiester; rarer units and linkages stand in square brackets, end groups in braces. Plain capitals give the bases only. {Fluorescein} = fluorescein label; d = 2'-deoxy (DNA)

Experiments:
[1] = target: ISIS 3521; assay: Fluorescence titration: quenching of peptide Trp fluorescence by bound oligonucleotide; format: binding
Experimental: The interaction of ISIS 3521 (SEQ ID NO:5), a 20mer phosphorothioate antisense oligonucleotide, with the short and long protamine-NLS peptides (s-protamine-NLS and l-protamine-NLS) was evaluated by fluorescence spectroscopy. The peptide contains a single Trp residue (position 8 of the short peptide; SEQ ID NO:2) which can be excited at 290 nm and emits fluorescent light at 330 nm. The ability of a bound oligonucleotide to quench this fluorescent emission constitutes a relatively sensitive probe for the monitoring of molecular interactions.
The titration of a 5 μM solution of s-protamine-NLS (SEQ ID NO:2) with increasing concentrations of ISIS 3521 (SEQ ID NO:5), both in PBS and in Opti-MEM (without serum, to mimic transfection conditions), led to dramatic fluorescence quenching. At least two oligonucleotide binding modes can be easily discerned: At low oligonucleotide concentration (relative to s-protamine-NLS peptide) a plot of the decrease in fluorescence (due to quenching) vs. oligonucleotide concentration fits an equation of the Michaelis-Menton type. […] However, as oligonucleotide concentration is increased, Trp fluorescence continues to decline, but a similar plot no longer fits a Michaelis-Menton-type equation, and the binding becomes increasingly complex. Trp fluorescence is finally completely quenched (i.e., 100%) at a 4:1 molar ratio of peptide/oligonucleotide. […]

[2] = test system: T24 cells; assay: Fluorescence confocal microscopy of oligonucleotide delivery to the cell nucleus; format: cell-based; conditions: 2 μM 5′-fluorescein-labeled ISIS 3521; 8 μM and 6 μM peptide; T24 cells pretreated with 25 μM chloroquine; 24 hr
Experimental: The ability of the protamine-NLS peptides to deliver the oligonucleotides into the cell nucleus was evaluated by fluorescence confocal microscopy.
Confocal microscopy: Cells were seeded in glass bottom microwells (MatTec Corp., Mass.), and treated with peptide-oligodeoxynucleotide complexes at 37° C. for 24 hr. Cellular internalization was examined using an LSM 410 laser scanning confocal microscope (Zeiss, Thornwood, N.Y.) equipped with a krypton/argon laser and attached to a Zeiss Axiovert 100 TV microscope. The 515-540 nm bandpass for fluorescein was used. Z-series were taken of a 1 to 2 micron optical section at 2 μm intervals. For measurements, a maximum projection of all sections was employed.

[3] = test system: T24 bladder carcinoma cells; assay: MTT cellular viability assay of paclitaxel-treated T24 cells; format: cell-based; conditions: 3 days paclitaxel, 24 hours treatment, 8 μM peptide / 2 μM oligonucleotide, 25 μM chloroquine pretreatment
Experimental: As a measure of the effectiveness of the peptide-delivered antisense inhibition of PKC-α the cells treated with peptide were exposed to paclitaxel, a compound commonly used in cancer therapy to inhibit microtubule depolymerization.
Cellular viability assay: Cells were seeded in 96-well tissue culture plates and treated the next day with oligonucleotide-peptide complexes for 24 hr. […] The cells were incubated for 4 hr at 37° C., 5% CO2 with 0.5 mg/mL MTT in complete media. An equal volume of solubilization solution (10% SDS in 0.01 M HCl) was then added and allowed to incubate overnight at 37° C. After the formazan crystals were dissolved, the plates were read on a Dynatech MR600 Microplate Reader at 540 nm.
Statistical analysis of the results was performed using the Analysis ToolPack provided by Microsoft Excel. A Student's two-sample t-test, assuming unequal variances, was used to determine the equality of the means of two samples. The confidence level was 0.05.

[4] = test system: PKC-α; assay: Western blot of PKC-α protein expression in T24 cells; format: cell-based; conditions: for inhibition of PKC-α protein expression (antisense activity), in words: short-peptide experiments, 2 μM oligonucleotide, 25 μM chloroquine preincubation
Experimental: (§1) Experiments using the protamine-NLS peptides to deliver antisense oligonucleotides were performed in T24 bladder carcinoma and PC-3 prostate carcinoma cells. In addition to the 20-mer ISIS 3521, the 18-mer phosphorothioate oligonucleotide G3139 (SEQ ID NO:6) was also employed. G3139 is targeted to the first six codons of the human bcl-2 open reading frame. […] The expression of PKC-α protein was assayed by Western blotting after 24 hr, while the expression of bcl-2 protein in PC3 cells was assayed similarly after a further 48 hr incubation in RPMI media containing 10% FBS. In both cases, the incubations were performed in the continuous presence of the peptide/oligonucleotide complexes.
Treatment of cells with oligonucleotide-peptide complexes: Cells were grown in six-well plates until 65-75% confluent. […] The solution was mixed gently and incubated at room temperature for 30 min to allow oligonucleotide-peptide complexes to form. […] The cells were then incubated at 37° C. for 24 hr (for PKC-α) or re-fed with complete McCoy's 5A media containing 10% FBS and allowed to incubate for an additional 72 hr (for bcl-2) before cell lysis and extract preparation.
(§2) Western Blotting: Cells were treated with peptide-oligodeoxynucleotide complexes, scraped, washed with cold PBS and then extracted in […] of lysis buffer [50 mM Tris-HCl, pH 7.5; 1% NP-40; 0.25% sodium deoxycholate; 150 mM NaCl; 1 mM EGTA; 50 μg/mL Pefablock™ SC; 15 μg/mL aprotinin, leupeptin, chymostatin, and pepstatin A; 1 mM Na3VO4; 1 mM NaF] at 4° C. for 1 hr. Cell debris was removed by centrifugation at 14,000×g for 20 min at 4° C. Protein concentrations were determined using the Bio-Rad protein assay system (Bio-Rad Laboratories, Richmond, Calif.).
Aliquots of cell extracts containing 20-30 μg of protein were resolved by 10% or 12% SDS-polyacrylamide gel electrophoresis and transferred to Hybond ECL filter paper (Amersham, Arlington Heights, Ill.). […]

[5] = test system: PKC-α; assay: Western blot of PKC-α protein expression in PC3 cells; format: cell-based; conditions: for inhibition of PKC-α protein expression (antisense activity), in words: short-peptide experiments, 2 μM oligonucleotide, 25 μM chloroquine preincubation; for inhibition of PKC-α protein expression, in words: long-peptide experiments, ISIS 3521 0.25-2 μM, ISIS 4559 2 μM, 25 μM chloroquine pre-treatment required
Experimental: as §1
Treatment of cells with oligonucleotide-peptide complexes: Cells were grown in six-well plates until 65-75% confluent. The peptides, at the stated peptide/oligonucleotide molar ratios, were diluted in 500 μL of Opti-MEM medium and oligonucleotide was then added up to the required concentration of 2 μM. The solution was mixed gently and incubated at room temperature for 30 min to allow oligonucleotide-peptide complexes to form. […] The cells were then incubated at 37° C. for 24 hr (for PKC-α) or re-fed with complete McCoy's 5A media containing 10% FBS and allowed to incubate for an additional 72 hr (for bcl-2) before cell lysis and extract preparation.
as §2
Aliquots of cell extracts containing 20-30 μg of protein were resolved by 10% or 12% SDS-polyacrylamide gel electrophoresis and transferred to Hybond ECL filter paper (Amersham, Arlington Heights, Ill.). Filters were incubated at room temperature for 1-2 h in Blotto A [5% non-fat milk powder in TBS-T:10 mM Tris-HCl, pH 8.0, 150 mM NaCl, 0.05% Tween 20 (for PKC-α) and 5% BSA in PBS, 0.5% Tween (for Bcl-2)] and then probed overnight at 4° C. with 1:1000 dilution of anti-PKC- or 1:500 dilution of anti-Bcl-2 in Blotto A. After washing in TBS-T or PBS-T buffer (3×7 min, room temperature), filters were incubated for 1 h at room temperature in 5% milk/TBS-T or 5% milk/PBS-T buffer containing a 1:3,000 dilution of peroxidase-conjugated anti-mouse secondary antibody. […]

[6] = test system: bcl-2; assay: Western blot of bcl-2 protein expression in PC3 cells; format: cell-based, human; conditions: PC-3 cells; short-peptide experiments; 25 μM chloroquine pretreatment
Experimental: as §1
Treatment of cells with oligonucleotide-peptide complexes: Cells were grown in six-well plates until 65-75% confluent. […]
Western Blotting: Cells were treated with peptide-oligodeoxynucleotide complexes, scraped, washed with cold PBS and then extracted in […] of lysis buffer [50 mM Tris-HCl, pH 7.5; 1% NP-40; 0.25% sodium deoxycholate; 150 mM NaCl; 1 mM EGTA; 50 μg/mL Pefablock™ SC; 15 μg/mL aprotinin, leupeptin, chymostatin, and pepstatin A; 1 mM Na3VO4; 1 mM NaF] at 4° C. for 1 hr. […] Protein concentrations were determined using the Bio-Rad protein assay system (Bio-Rad Laboratories, Richmond, Calif.). […]

Molecule | delivery of fluoresceinated oligonucleotide to the cell nucleus [2] | cellular viability (reduction in cell proliferation by MTT assay), in words [3] | inhibition of PKC-α protein expression (antisense activity), in words [4] | inhibition of PKC-α protein expression (antisense activity), in words [5] | inhibition of PKC-α protein expression, in words [5] | also measured
RRRRRRWGRRRRRRPKKKRKV [s-protamine-NLS, peptide with shorter protamine fragment and SV40 large T-antigen nuclear localization signal] | effectively delivered fluoresceinated oligonucleotide to the cell nucleus | no effect on cell viability |  |  |  | Kd ([1]; 5 μM s-protamine-NLS titrated with ISIS 3521, low oligonucleotide concentration, R^2=0.99, read-out: Kd from Lineweaver-Burke (double reciprocal) plot of fluorescence quenching): 80 nM; Trp fluorescence quenched ([1]; at a 4:1 molar ratio of peptide/oligonucleotide): 100%
CCN(CC)CCCC(C)Nc1ccnc2cc(Cl)ccc12 (stereo not drawn) [chloroquine] |  |  | did not downregulate PKC-α expression | did not downregulate PKC-α expression |  | inhibition of Bcl-2 expression (antisense activity), in words [6]: totally inactive
5′-GTTCTCGCTGGTGAGTTTCA-3′ (antisense dG*dT*dT*dC*dT*dC*dG*dC*dT*dG*dG*dT*dG*dA*dG*dT*dT*dT*dC*dA) [ISIS 3521] |  | no effect on cell viability | completely ineffective | completely ineffective | did not have antisense effects | 
s-protamine-scrambled NLS: control peptide: short protamine fragment with scrambled NLS sequence (RRRRRRWGRRRRRRPKGKRKV; CONTROL PEPTIDE) | also promotes the delivery of the oligonucleotide to the nucleus |  |  |  |  | 
5′-fluorescein-labeled ISIS 3521: ISIS 3521 labeled with fluorescein at the 5′ end, for confocal microscopy (antisense {Fluorescein}-dG*dT*dT*dC*dT*dC*dG*dC*dT*dG*dG*dT*dG*dA*dG*dT*dT*dT*dC*dA) | internalized poorly |  |  |  |  | 
l-protamine-NLS: long Arg-rich protamine fragment peptide with C-terminal SV40 large T-antigen nuclear localization signal (RRRRSRRRRRRFGRRRRRRVWRRRRPKKKRKV; NOVEL PEPTIDE - SV40/PROTAMINE SOURCE) |  |  |  |  | no effect | inhibition of PKC-α protein expression, in words ([4]; long-peptide experiments, ISIS 3521 0.25, 0.5, 1 μM, ISIS 4559 2 μM, chloroquine not required): no effect
